According to publication PMC6596218, “Anthranilic amide and imidazobenzothiadiazole compounds disrupt Mycobacterium tuberculosis membrane potential” (MedChemComm, 2019):
≈ marks a conversion by molar mass, not a printed value.

How the values were obtained:
HepG2 cells = assay: HepG2 cytotoxicity (CellTiter-Glo, 72 h); assay type: cell-based; conditions: Homo sapiens, mean ± standard deviation, replicates in parentheses
M. tuberculosis H37Rv = assay: Minimum bactericidal concentration at pH 4.5 (MBC4.5), luminescence readout; assay type: cell-based, Mycobacterium tuberculosis; conditions: median, pH 4.5 phosphate citrate buffer, 7 days, 2-log reduction threshold, replicates in parentheses; for MBC: Mycobacterium tuberculosis, H37RV, 168 h
M. tuberculosis = system: M. tuberculosis; set-up: method as in PMID 30501173; conditions: non-replicating, cited from earlier work
[1] = system: non-replicating M. tuberculosis; assay: Non-replicating kill kinetics at pH 5.5 (CFU over 21 days); assay type: cell-based, Mycobacterium tuberculosis; conditions: single replicate; for log kill within 21 days: pH 5.5, 21 days
[2] = system: intracellular M. tuberculosis in RAW 264.7 cells; assay: Activity against intracellular M. tuberculosis in RAW 264.7 cells; assay type: cell-based, Mycobacterium tuberculosis; conditions: RAW 264.7 cells (ATCC TIB-71)
Description: In addition to determination of the MBC4.5 for each compound, we evaluated antitubercular activity of the compounds as measured by MIC at pH 5.6 (Table S1 ^†) and IC50 against intracellular M. tuberculosis in RAW 264.7 cells (ATCC TIB-71) (Table S2 ^†). […] General cytotoxicity against the infected RAW 264.7 cells was observed and was correlated with cytotoxicity against HepG2 cells (Table S2 ^†).

SMILES | IC50 (HepG2 cells) | MBC (M. tuberculosis H37Rv) | MBC4.5 (M. tuberculosis H37Rv) | decrease of CFU in the culture within 7 days (M. tuberculosis; pH 4.5 and pH 6.8, 10–100 μM, 7 days) | time to sterilizing the culture (M. tuberculosis; pH 4.5 and pH 6.8, all concentrations 10–100 μM) | log kill at 14 days ([1]; pH 5.5, 14 days) | antitubercular activity against intracellular M. tuberculosis [2] | log kill within 21 days [1]
O=[N+]([O-])c1cc2nc(C(F)(F)F)[nH]c2c2nsnc12 [Compound 2] | 83 ± 24 µM | 25 µM (≈ 7.23 µg/mL) | 25 (2) μM | > 4 logs | ≤ 14 days | – | – | –
CS(=O)(=O)Nc1ccccc1C(=O)Nc1ccc(Cl)cc1Cl [Compound 8, N-(2,4-dichlorophenyl)-2-(methylsulfonamido)benzamide] | 78 ± 29 µM | 75 µM (≈ 26.9 µg/mL) | – | – | – | > 4 log | – | –
CCN(C)c1ccccc1C(=O)Nc1ccc(Cl)cc1Cl [Compound 11, N-(2,4-dichlorophenyl)-2-(ethyl(methyl)amino)benzamide] | 69 ± 44 µM | > 200 µM | – | – | – | – | showed antitubercular activity | –
Cc1ccc(S(=O)(=O)Nc2ccccc2C(=O)Nc2ccc(Cl)cc2Cl)cc1 [Compound 15, N-(2,4-dichlorophenyl)-2-(4-methylphenylsulfonamido)benzamide] | 37 ± 8.5 µM | > 200 µM | – | – | – | – | – | > 3 logs
O=C(Nc1ccccn1)c1ccccc1NS(=O)(=O)c1ccc(Br)cc1 [Compound 24, 2-(4-bromophenylsulfonamido)-N-(pyridin-2-yl)benzamide] | 52 ± 13 µM | 113 µM (≈ 48.8 µg/mL) | – | – | – | – | – | > 3 logs
